Marks after values point to notes of the source that are not given here.
What was measured:
Assay type in all cases: in vivo
[1] = test system: Erysiphe graminis f. sp. tritici; experiment: Test A: preventive control of wheat powdery mildew on wheat seedlings; settings: wheat seedlings sprayed to run-off, inoculated next day, rated after 7 days; concentration not given
Excerpt: (§1) General protocol for preparing test suspensions: Test compounds are first dissolved in acetone in an amount equal to 3% of the final volume and then suspended at the desired concentration (in ppm) in acetone and purified water (50/50 mix) containing 250 ppm of the surfactant Trem® 014 (polyhydric alcohol esters). The resulting test suspensions are then used in the following tests. Spraying a 200 ppm test suspension to the point of run-off on the test plants is the equivalent of a rate of 500 g/ha.
The test suspension was sprayed to the point of run-off on wheat seedlings. The following day the seedlings were inoculated with a spore dust of Erysiphe graminis f. sp. tritici, (the causal agent of wheat powdery mildew) and incubated in a growth chamber at 20° C. for 7 days, after which disease ratings were made.

Pyricularia oryzae = settings: rice seedlings sprayed to run-off, inoculated next day; concentration not given
grape downy mildew = experiment: Curative utility, in addition to the Tests of Table A; settings: especially for grape downy mildew
Plasmopara viticola [2] = experiment: Test E: preventive control of grape downy mildew on grape seedlings
Excerpt: as §1
The test suspension was sprayed to the point of run-off on grape seedlings. The following day the seedlings were inoculated with a spore suspension of Plasmopara viticola (the causal agent of grape downy mildew) and incubated in a saturated atmosphere at 20° C. for 24 h, moved to a growth chamber at 20° C. for 6 days, and then incubated in a saturated atmosphere at 20° C. for 24 h, after which disease ratings were made.

Phytophthora infestans [3] = settings: tomato seedlings sprayed to run-off, inoculated next day; concentration not given
Phytophthora infestans [4] = settings: curative; 100 ppm on potato seedlings
Puccinia recondita = experiment: Test B: preventive control of wheat leaf rust on wheat seedlings; settings: wheat seedlings sprayed to run-off, inoculated next day; concentration not given
Excerpt: as §1
The test suspension was sprayed to the point of run-off on wheat seedlings. The following day the seedlings were inoculated with a spore suspension of Puccinia recondita (the causal agent of wheat leaf rust) and incubated in a saturated atmosphere at 20° C. for 24 h, and then moved to a growth chamber at 20° C. for 6 days, after which disease ratings were made.

Plasmopara viticola [5] = experiment: Test G: curative control of grape downy mildew on grape seedlings
Excerpt: as §1
Grape seedlings are inoculated with a spore suspension of Plasmopara viticola (the casual agent of grape downy mildew) and incubated in a saturated atmosphere at 20° C. for 24 h. The next day, test suspension is sprayed to the point of run-off and the treated plants are moved to a growth chamber at 20° C. for 6 days, and then incubated in a saturated atmosphere at 20° C. for 24 h, after which disease ratings are made.

[6] = grape seedlings sprayed to run-off, inoculated next day, concentration not given
[7] = grape seedlings, curative, 20 ppm
[8] = grape seedlings inoculated, sprayed next day (curative), concentration not given

Molecule	Test A disease control rating (100 = 100% disease control, 0 = no control) [1] [%]	Test C disease control rating (100 = 100% disease control, 0 = no control) (Pyricularia oryzae) [%]	curative utility (grape downy mildew)	Test E disease control rating (100 = 100% disease control, 0 = no control) (Plasmopara viticola [2]; [6]) [%]	Test D disease control rating (100 = 100% disease control, 0 = no control) (Phytophthora infestans [3]) [%]	Test F disease control rating (100 = 100% disease control, 0 = no control) (Phytophthora infestans [4])	Test B disease control rating (100 = 100% disease control, 0 = no control) (Puccinia recondita) [%]	Test G disease control rating (100 = 100% disease control, 0 = no control) (Plasmopara viticola [5]; grape seedlings, curative, 100 ppm (footnote *))	Test G disease control rating (100 = 100% disease control, 0 = no control) (Plasmopara viticola [5]; [7])	Test E disease control rating (100 = 100% disease control, 0 = no control) (Plasmopara viticola [2]; grape seedlings, preventive, 100 ppm (footnote *))	Test G disease control rating (100 = 100% disease control, 0 = no control) (Plasmopara viticola [5]; [8]) [%]
2,4-Dichloro-N-[1-[3-chloro-5-(trifluoromethyl)-2-pyridinyl]ethyl]-3-pyridinecarboxamide [Compound 21]	0	0	significant curative utility	100	100	100# %	74	100* %			
CC(NC(=O)c1c(Cl)ccnc1Cl)c1ncc(C(F)(F)F)cc1Cl (single isomer, unassigned; (+)) [Compound 22, (+)-2,4-Dichloro-N-[1-[3-chloro-5-(trifluoromethyl)-2-pyridinyl]ethyl]-3-pyridinecarboxamide]		0	significant curative utility	100	100	100# %			100** %		
CC(NC(=O)c1c(Cl)ccnc1Cl)c1ncc(C(F)(F)F)cc1Cl (single isomer, unassigned; (-)) [Compound 23, (−)-2,4-Dichloro-N-[-1-[3-chloro-5-(trifluoromethyl)-2-pyridinyl]ethyl]-3-pyridinecarboxamide]						65# %			0** %	69* %	
Cc1cc(Cl)c(C(=O)NCc2ncc(C(F)(F)F)cc2Cl)c(Cl)n1 [Compound 5, 2,4-Dichloro-N-[[3-chloro-5-(trifluoromethyl)-2-pyridinyl]methyl]-6-methyl-3-pyridinecarboxamide]	0		significant curative utility	100	100	100# %	8				96
Nc1ncccc1C(=O)NCc1ncc(C(F)(F)F)cc1Cl [Compound 6]	0	0		0	7		28				8
O=C(NCc1ncc(C(F)(F)F)cc1Cl)c1cncc(Br)c1 [Compound 7]	0	74		0	16		9				0
O=C(NCc1ncc(C(F)(F)F)cc1Cl)c1cccnc1O [Compound 8]	0	0		8	7		9				8
COc1ncccc1C(=O)NCc1ncc(C(F)(F)F)cc1Cl [Compound 9]	0	0		24	7		19				24

From US20050009889A1 (priority 2002, published 2005)
